Experimental data taken from patent publication US11986471B2, “Compounds and methods of use” (Tango Therapeutics, Inc., priority 2018, dated 2024).

What was measured:
PRMT5 [1] = biological target: T1, PRMT5 (Homo sapiens, UniProt O14744); assay: PRMT5 IC50 assay in the presence of SAM as cofactor; assay type: biochemical
T1 construct: purchased Viva (custom protein)
How it was run: (§1)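 IC50 values were measured against human PRMT5 with SAM, with MTA, or with no cofactor. Ki was derived from IC50 as Ki=IC50/1.5 with SAM and Ki=IC50/13.5 with MTA, and the Ki(SAM)/Ki(MTA) ratio was then taken.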

PRMT5 [2] = biological target: T1, PRMT5; assay: PRMT5 IC50 assay with no cofactor; assay type: biochemical
How it was run: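 Three cofactor conditions tested for PRMT5 inhibition: none, MTA and SAM, each giving an IC50. For conversion to Ki, the MTA-condition IC50 is divided by 13.5 and the SAM-condition IC50 by 1.5, and the two Ki values are expressed as a SAM/MTA ratio.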

PRMT5 [3] = biological target: T1, PRMT5; assay: PRMT5 IC50 assay in the presence of MTA as cofactor; assay type: biochemical; settings: for IC50: PRMT5, MTA as cofactor
How it was run: as §1

HAP1 MTAP-intact = assay: SDMA in-cell western assay, HAP1 MTAP-intact cell line; assay type: cell-based; settings: Homo sapiens
How it was run: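 IC50 values come from SDMA in-cell western staining of HAP1 cells. The MTAP-intact line carries endogenous MTAP, while its MTAP-deleted counterpart lacks MTAP entirely. A selectivity ratio of at least 3 fold marks a compound as MTAP-selective.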

HAP1 MTAP-deleted = assay: SDMA in-cell western assay, HAP1 MTAP-deleted cell line; assay type: cell-based; settings: for IC50: Homo sapiens, HAP1 MTAP-deleted cell line; for MTAP Intact/Deleted Ratio: IC50 ratio HAP1 MTAP-intact / HAP1 MTAP-deleted
How it was run: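 Readout is cellular SDMA signal by in-cell western, with IC50 values derived from it. The cells are MTAP-null HAP1, matched to an isogenic MTAP-intact HAP1 line.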

[4] = ratio between the Ki in the presence of SAM and the Ki in the presence of MTA
[5] = ratio between Ki in the presence of SAM and Ki in the presence of MTA

T1 sequence (O14744 whole entry): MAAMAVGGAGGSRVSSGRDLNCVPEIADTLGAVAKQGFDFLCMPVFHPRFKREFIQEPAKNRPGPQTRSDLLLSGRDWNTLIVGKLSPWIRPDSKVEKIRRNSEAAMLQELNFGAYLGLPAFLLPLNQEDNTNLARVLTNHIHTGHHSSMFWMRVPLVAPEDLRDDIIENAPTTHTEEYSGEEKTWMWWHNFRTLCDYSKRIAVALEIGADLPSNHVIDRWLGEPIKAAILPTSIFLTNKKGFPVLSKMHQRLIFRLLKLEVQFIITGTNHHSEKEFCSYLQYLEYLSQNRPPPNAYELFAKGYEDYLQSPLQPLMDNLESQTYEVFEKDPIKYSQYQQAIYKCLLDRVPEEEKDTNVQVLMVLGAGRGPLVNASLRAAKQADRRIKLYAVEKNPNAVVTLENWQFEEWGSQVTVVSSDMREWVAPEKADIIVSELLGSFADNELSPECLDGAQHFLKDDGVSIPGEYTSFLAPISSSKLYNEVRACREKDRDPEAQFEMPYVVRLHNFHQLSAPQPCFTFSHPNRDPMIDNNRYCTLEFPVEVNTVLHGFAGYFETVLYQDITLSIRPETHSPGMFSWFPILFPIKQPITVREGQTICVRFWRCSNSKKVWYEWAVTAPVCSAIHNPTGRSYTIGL
T1 sequence (Q9BQA1 whole entry partner): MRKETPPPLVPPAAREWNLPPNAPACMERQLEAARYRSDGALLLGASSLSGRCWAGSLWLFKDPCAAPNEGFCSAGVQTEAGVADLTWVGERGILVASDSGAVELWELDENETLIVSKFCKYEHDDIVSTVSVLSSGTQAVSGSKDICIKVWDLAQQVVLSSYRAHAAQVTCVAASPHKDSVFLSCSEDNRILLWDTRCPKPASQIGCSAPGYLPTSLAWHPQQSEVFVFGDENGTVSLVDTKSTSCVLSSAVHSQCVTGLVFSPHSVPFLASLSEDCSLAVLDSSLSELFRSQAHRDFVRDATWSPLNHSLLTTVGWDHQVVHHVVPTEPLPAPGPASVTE

SMILES	IC50 (PRMT5 [1]) [µM]	IC50 (PRMT5 [2]) [µM]	IC50 (PRMT5 [3]) [µM]	IC50 (HAP1 MTAP-intact) [µM]	IC50 (HAP1 MTAP-deleted) [µM]	IC50 (PRMT5 [2]; read-out: No Co-factor IC50) [µM]	MTAP Intact/Deleted Ratio (HAP1 MTAP-deleted)	SAM/MTA Ratio (PRMT5 [3]; [4])	SAM/MTA Ratio (PRMT5 [3]; [5])
CC(=O)N1CCC(Nc2cc(C(=O)NC[C@H](O)CN3CCc4c(ccc(OCc5ccnn5C)c4Cl)C3)ncn2)CC1 [Compound 242, (S)-6-((1-acetylpiperidin-4-yl)amino)-N-(3-(5-chloro-6-((1-methyl-1H-pyrazol-5-yl)methoxy)-3,4-dihydroisoquinolin-2(1H)-yl)-2-hydroxypropyl)pyrimidine-4-carboxamide]	0.5 to 5	–	0.5 to 5	≥ 10	≥ 10	≥ 5	C* (an IC50 ratio of less than 3 fold between the IC50 in the HAP1 MTAP-intact cell line and the HAP1 MTAP-deleted cell line)	–	–
O=C(NC[C@H](O)CN1CCc2c(ccc(OCc3cnco3)c2Cl)C1)c1cc(NC2CCC2)nc(N2CCCCC2)c1 [Compound 305, (S)—N-(3-(5-chloro-6-(oxazol-5-ylmethoxy)-3N-dihydroisoquinolin-2(1H)-yl)-2-hydroxypropyl)-2-(cyclobutylamino)-6-(piperidin-1-yl)isonicotinamide]	0.5 to 5	–	0.5 to 5	≥ 10	1 to 10	≥ 5	C* (an IC50 ratio of less than 3 fold between the IC50 in the HAP1 MTAP-intact cell line and the HAP1 MTAP-deleted cell line)	–	A (a Ki ratio greater than or equal to 10 fold between the Ki in the presence of SAM and the Ki in the presence of MTA)
Cn1nccc1COc1ccc2c(c1Cl)CCN(C[C@@H](O)CNC(=O)c1ccnc(NC3CCCC3)c1)C2 [Compound 275, (S)—N-(3-(5-chloro-6-((1-methyl-1H-pyrazol-5-yl)methoxy)-3,4-dihydroisoquinolin-2(1H)-yl)-2-hydroxypropyl)-2-(cyclopentylamino)isonicotinamide]	0.5 to 5	–	0.5 to 5	≥ 10	≥ 10	≥ 5	C* (an IC50 ratio of less than 3 fold between the IC50 in the HAP1 MTAP-intact cell line and the HAP1 MTAP-deleted cell line)	–	A (a Ki ratio greater than or equal to 10 fold between the Ki in the presence of SAM and the Ki in the presence of MTA)
Cc1ncoc1COc1ccc2c(c1)CCN(C[C@@H](O)CNC(=O)c1ccc3c(c1)CCN(C(=O)c1ccc(Br)cc1)C3)C2 [Compound 493]	0.05 to 0.5	0.5 to 5	< 0.05	1 to 10	< 1	–	B* (an IC50 ratio greater than or equal to 3 fold but lower than 10 fold between the IC50 in the HAP1 MTAP-intact cell line and the HAP1 MTAP-deleted cell line)	A (a Ki ratio greater than or equal to 10 fold between the Ki in the presence of SAM and the Ki in the presence of MTA)	–
Cc1ncoc1COc1ccc2c(c1)CCN(C[C@@H](O)CNC(=O)c1cc(NC3CCC3)nc(N3CCN(C(C)(C)C)CC3)c1)C2 [Compound 403, 2-(4-tert-butylpiperazin-1-yl)-6-(cyclobutylamino)-N-[(2S)-2-hydroxy-3-{6-[(4-methyl-1,3-oxazol-5-yl)methoxy]-1,2,3,4-tetrahydroisoquinolin-2-yl}propyl]pyridine-4-carboxamide]	0.05 to 0.5	–	0.05 to 0.5	< 1	≥ 10	0.5 to 5	C* (an IC50 ratio of less than 3 fold between the IC50 in the HAP1 MTAP-intact cell line and the HAP1 MTAP-deleted cell line)	–	A (a Ki ratio greater than or equal to 10 fold between the Ki in the presence of SAM and the Ki in the presence of MTA)
O=C(NC[C@H](O)CN1CCc2cc(OCc3cnco3)ccc2C1)c1ccnc(NC2CN(C(=O)C3CCC3)C2)c1 [Compound 468, 2-[[1-(cyclobutanecarbonyl)azetidin-3-yl]amino]-N-[(2S)-2-hydroxy-3-[6-(oxazol-5-ylmethoxy)-3,4-dihydro-1H-isoquinolin-2-yl]propyl]pyridine-4-carboxamide]	0.05 to 0.5	0.5 to 5	0.05 to 0.5	1 to 10	1 to 10	–	B* (an IC50 ratio greater than or equal to 3 fold but lower than 10 fold between the IC50 in the HAP1 MTAP-intact cell line and the HAP1 MTAP-deleted cell line)	A (a Ki ratio greater than or equal to 10 fold between the Ki in the presence of SAM and the Ki in the presence of MTA)	–

Continued, in another order:

IC50 (PRMT5 [1]) [µM]	IC50 (PRMT5 [2]) [µM]	IC50 (PRMT5 [3]) [µM]	IC50 (HAP1 MTAP-intact) [µM]	IC50 (HAP1 MTAP-deleted) [µM]	IC50 (PRMT5 [2]; read-out: No Co-factor IC50) [µM]	SMILES	MTAP Intact/Deleted Ratio (HAP1 MTAP-deleted)	SAM/MTA Ratio (PRMT5 [3]; [4])	SAM/MTA Ratio (PRMT5 [3]; [5])
0.05 to 0.5	≥ 5	0.05 to 0.5	≥ 10	1 to 10	–	Cc1ncoc1COc1ccc2c(c1C)CCN(C[C@@H](O)CNC(=O)c1cc(NC3CCC3)nc(N3CCOCC3)c1)C2 [Compound 461, 2-(cyclobutylamino)-N-[(2S)-2-hydroxy-3-{5-methyl-6-[(4-methyl-1,3-oxazol-5-yl)methoxy]-1,2,3,4-tetrahydroisoquinolin-2-yl}propyl]-6-(morpholin-4-yl)pyridine-4-carboxamide]	B* (an IC50 ratio greater than or equal to 3 fold but lower than 10 fold between the IC50 in the HAP1 MTAP-intact cell line and the HAP1 MTAP-deleted cell line)	–	–
0.05 to 0.5	0.5 to 5	0.05 to 0.5	1 to 10	1 to 10	–	COc1cnc(NC2CCC2)cc1C(=O)NC[C@H](O)CN1CCc2cc(OCc3ocnc3C)ccc2C1 [Compound 602]	C* (an IC50 ratio of less than 3 fold between the IC50 in the HAP1 MTAP-intact cell line and the HAP1 MTAP-deleted cell line)	A (a Ki ratio greater than or equal to 10 fold between the Ki in the presence of SAM and the Ki in the presence of MTA)	–
0.05 to 0.5	≥ 5	0.05 to 0.5	≥ 10	1 to 10	–	COCCN(C)c1cc(C(=O)NC[C@H](O)CN2CCc3c(ccc(OCc4ocnc4C)c3C)C2)cc(NC2CCC2)n1 [Compound 437, 2-(cyclobutylamino)-N-[(2S)-2-hydroxy-3-{5-methyl-6-[(4-methyl-1,3-oxazol-5-yl)methoxy]-1,2,3,4-tetrahydroisoquinolin-2-yl}propyl]-6-[(2-methoxyethyl)(methyl)amino]pyridine-4-carboxamide]	B* (an IC50 ratio greater than or equal to 3 fold but lower than 10 fold between the IC50 in the HAP1 MTAP-intact cell line and the HAP1 MTAP-deleted cell line)	A (a Ki ratio greater than or equal to 10 fold between the Ki in the presence of SAM and the Ki in the presence of MTA)	–
0.05 to 0.5	–	0.05 to 0.5	≥ 10	≥ 10	0.5 to 5	CC(=O)N1CC(Nc2cc(C(=O)NC[C@H](O)CN3CCc4c(ccc(OCc5cnco5)c4Cl)C3)ccn2)C1 [Compound 380, (S)-2-((1-acetylazetidin-3-yl)amino)-N-(3-(5-chloro-6-(oxazol-5-ylmethoxy)-3,4-dihydroisoquinolin-2(1H)-yl)-2-hydroxypropyl)isonicotinamide]	C* (an IC50 ratio of less than 3 fold between the IC50 in the HAP1 MTAP-intact cell line and the HAP1 MTAP-deleted cell line)	–	A (a Ki ratio greater than or equal to 10 fold between the Ki in the presence of SAM and the Ki in the presence of MTA)
0.05 to 0.5	–	0.05 to 0.5	≥ 10	< 1	0.5 to 5	CCN1CCN(c2cc(C(=O)NC[C@H](O)CN3CCc4c(ccc(OCc5ocnc5C)c4C)C3)cc(NC3CCC3)n2)CC1 [Compound 394, 2-(cyclobutylamino)-6-(4-ethylpiperazin-1-yl)-N-[(2S)-2-hydroxy-3-{5-methyl-6-[(4-methyl-1,3-oxazol-5-yl)methoxy]-1,2,3,4-tetrahydroisoquinolin-2-yl}propyl]pyridine-4-carboxamide]	A* (an IC50 ratio greater than or equal to 10 fold between the IC50 in the HAP1 MTAP-intact cell line and the HAP1 MTAP-deleted cell line)	–	A (a Ki ratio greater than or equal to 10 fold between the Ki in the presence of SAM and the Ki in the presence of MTA)
0.05 to 0.5	0.5 to 5	0.05 to 0.5	≥ 10	≥ 10	–	O=C(NC[C@H](O)CN1CCc2c(ccc(OCc3cnco3)c2Cl)C1)c1cc(NC2CCC2)nc(N2CCNCC2)c1 [Compound 464, (S)—N-(3-(5-chloro-6-(oxazol-5-ylmethoxy)-3,4-dihydroisoquinolin-2(1H)-yl)-2-hydroxypropyl)-2-(cyclobutylamino)-6-(piperazin-1-yl)isonicotinamide]	C* (an IC50 ratio of less than 3 fold between the IC50 in the HAP1 MTAP-intact cell line and the HAP1 MTAP-deleted cell line)	A (a Ki ratio greater than or equal to 10 fold between the Ki in the presence of SAM and the Ki in the presence of MTA)	–
